Earlier results, collected in US8679534B2, “HMG-CoA reductase inhibitor extended release formulation” (Andrx Labs, LLC, priority 1997, dated 2014).

System: blood serum cholesterol level
Settings: background statement

Compound: CC[C@H](C)C(=O)O[C@H]1C[C@@H](C)C=C2C=C[C@H](C)[C@H](CC[C@@H]3C[C@@H](O)CC(=O)O3)[C@H]21 [Lovastatin, lovastatin]
- lowering of the blood serum cholesterol level: 30-40%
